This is an account of results in patent US20260144769A1, “4-PHENYLBUTYRATE RESTORED GABA UPTAKE AND REDUCED SEIZURES IN SLC6A1 VARIANT-MEDIATED DISORDERS” (Vanderbilt University, priority 2022, published 2026).

The assay has as its system GAT-1. Briefly: 3H GABA uptake, cultured cortical neurons from the knockin mice. In kind it is cell-based, mouse. As to conditions: PBA 2 mM, 24 hr. The procedure:
FIGS. 7C-D show neurons directly cultured in the 35-mm^2 dishes and GABA uptake was evaluated between day 15-17 days after culture. CI-966 (50 μM) and NNC711 (35 μM) was applied 30 min before preincubation and removed during preincubation. GAT-3 inhibitor SNAP5114 (30 μM) was applied during GABA uptake to make sure only GAT-1 activity was measured. The wildtype astrocytes (FIGS. 7A-B) or cortical neurons (FIGS. 7C-D) of either SLC6A1^+/A288V or SLC6A1^+/S295L were taken as 1. The cultures derived from each mutant mouse was compared to the culture from its own wildtype littermates. […] The wildtype data were pooled from two mouse lines. […] The graph represents the relative GABA uptake level normalized to cells of its own genotype treated with DMSO. CI-966 (50 μM) or NNC-711 (35 μM) was applied 30 min before preincubation and removed during preincubation. Two-way analysis of variance followed by Bonferroni multiple comparison test was used. Values were expressed as mean±S.E.M. In FIG. 7A and FIG. 7C, ***p<0.001 vs. wt; § § § P<0.001 S295L vs. A288V. […]
Briefly, cells were cultured in […] dishes for 3 days before the GABA uptake experiment in DMEM with 10% fetal bovine serum and 1% penicillin/streptomycin. […] Glacial acetic acid was added, and lysates were then determined on a liquid scintillator with QuantaSmart. […]

With `O=C(O)CCCc1ccccc1` [PBA, 4-phenylbutyric acid], the “GABA uptake in PBA treated cells” value is on record as “upregulation”.
